Data on 10 compounds can be found in patent US8324265B2, “Heterocyclic compounds having type I 11β hydroxysteroid dehydrogenase inhibitory activity” (Shionogi & Co., Ltd., priority 2005, dated 2012).

As a reminder, the melting point is the temperature of the solid-liquid transition.

Series [1] deals with recombinant mouse 11β-HSD1 (Mus musculus, UniProt P50172). As to the kind of experiment: Enzyme activity assay on mouse 11β-HSD1 (HTRF). To be noted: recombinant mouse 11β-HSD1, 2μM 11-dehydrocorticosterone as substrate, 2 hours at 37° C.; read-out: mouseIC50. In kind it is biochemical. As to the method: Evaluation of 11β-HSD1 Inhibitors (Enzyme Activity Assay on Mouse 11β-HSD1)
Chain of recombinant mouse 11β-HSD1 (P50172 whole entry): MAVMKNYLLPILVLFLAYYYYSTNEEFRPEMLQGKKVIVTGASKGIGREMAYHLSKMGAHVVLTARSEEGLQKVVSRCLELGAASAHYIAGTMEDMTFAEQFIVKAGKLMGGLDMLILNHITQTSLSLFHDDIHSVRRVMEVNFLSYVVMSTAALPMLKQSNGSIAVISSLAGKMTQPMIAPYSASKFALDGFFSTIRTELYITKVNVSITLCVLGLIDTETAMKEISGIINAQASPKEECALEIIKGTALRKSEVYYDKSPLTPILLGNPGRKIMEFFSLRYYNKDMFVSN
Enzymatic activity for mouse 11β-HSD1 activity was determined in a 10μl final volume of assay mixture containing 50 mM sodium phosphate buffer (pH 7.6), 1 mg/ml bovine serum albumin, 0.42 mg/ml NADPH, 1.26 mg/ml glucose-6-phosphate, glucose-6-phosphate dehydrogenase, test compound, recombinant mouse 11β-HSD1, and 2μM 11-dehydrocorticosterone as substrate. The reaction was started with the addition of 11-dehydrocorticosterone. After incubation for 2 hours at 37° C., 5μl of europium cryptate-labelled anti-cortisol antibody and 5μl of XL665-labeled cortisol were added. After further incubation for 2 hours at room temperature, the HTRF signal was measured. The corticosterone production was quantitated by a standard curve generated with several known concentrations of corticosterone in each assay.
The amount of corticosterone production without compounds was served as control, and the percent inhibition by compound at each concentration was calculated. The IC50 value of the compound for 11β-HSD1 was obtained using the inhibition curve generated by plotting the percent inhibition versus the concentration of test compound.
A general note: Time-resolved FRET reads energy transfer from a long-lived donor to a nearby acceptor.

Series [2] concerns the target recombinant human 11β-HSD1 (Homo sapiens, UniProt P28845). As to the kind of experiment: Enzyme activity assay on human 11β-HSD1 (HTRF). In kind it is biochemical. To be noted: recombinant human 11β-HSD1, 5μM cortisone as substrate, 2 hours at 37° C.; read-out: humanIC50. As to the method: Evaluation of 11β-HSD1 Inhibitors (Enzyme Activity Assay on Human 11β-HSD1)
Enzymatic activity for human 11β-HSD1 was determined in a 10 μl final volume of assay mixture containing 50 mM sodium phosphate buffer (pH 7.6), 1 mg/ml bovine serum albumin, 0.42 mg/ml NADPH, 1.26 mg/ml glucose-6-phosphate, glucose-6-phosphate dehydrogenase, test compound, recombinant human 11β-HSD1, and 5μM cortisone as substrate. The reaction was started with the addition of cortisone. After incubation for 2 hours at 37° C., 5μl of europium cryptate-labelled anti-cortisol antibody and 5μl of XL665-labeled cortisol were added. After further incubation for 2 hours at room temperature, the homogeneous time-resolved fluorescence (HTRF) signal was measured. The cortisol production was quantitated by a standard curve generated with several known concentrations of cortisol in each assay.
The amount of cortisol production without compounds was served as control, and the percent inhibition by test compound at each concentration was calculated. The IC50 value of the compound for 11β-HSD1 was obtained using the inhibition curve generated by plotting the percent inhibition versus the concentration of test compound.

pIC50: −log10 of the molar value.

Chain of recombinant human 11β-HSD1 (P28845 whole entry): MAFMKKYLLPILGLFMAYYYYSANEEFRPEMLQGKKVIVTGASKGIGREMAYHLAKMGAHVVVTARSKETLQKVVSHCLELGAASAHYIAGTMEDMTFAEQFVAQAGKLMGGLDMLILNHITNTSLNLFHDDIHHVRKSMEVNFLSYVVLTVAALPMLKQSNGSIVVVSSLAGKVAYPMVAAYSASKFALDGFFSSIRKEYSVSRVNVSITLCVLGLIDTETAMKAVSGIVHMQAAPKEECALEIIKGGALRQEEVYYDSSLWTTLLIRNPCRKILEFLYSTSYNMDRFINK

For `Cn1ncc(C(=O)NC2C3CC4CC(C3)CC2C4)c1OC1CCCCC1` (centres unmarked) [Compound A-6], the pIC50 is 6.03 in series [1] and 8.08 in series [2]. `CCC(CC)COc1c(C(=O)NC2C3CC4CC(C3)CC2C4)cnn1C` (centres unmarked) [Compound A-65] came in with a melting point of 89 to 90 °C. With `Cn1ncc(C(=O)NC23CC4CC(CC(C4)C2)C3)c1Oc1ccccc1` [Compound A-3], the values for the pIC50 in series [1] and in series [2] were 4.62 and 6.52, respectively. In the case of `Cn1ncc(C(=O)NC2C3CC4CC(C3)CC2C4)c1OCCc1ccsc1` (centres unmarked) [Compound A-64], the melting point lay in the range of 68 to 69 °C. Consider `Cn1ncc(C(=O)NC2C3CC4CC(C3)CC2C4)c1OCCc1ccccc1` (centres unmarked) [Compound A-7], for which the pIC50 in series [1] is 6.15; in series [2] it was 7.74. As to `Cn1ncc(C(=O)NC2C3CC4CC(C3)CC2C4)c1OCc1ccccc1` (centres unmarked) [Compound A-4], the values for the pIC50 in series [1] and in series [2] were 5.80 and 7.43, respectively. On the same counts, the results for `Cn1ncc(C(=O)NC23CC4CC(CC(C4)C2)C3)c1OCc1ccccc1` [Compound A-1] are 5.23 and 6.72. As for `Cn1ncc(C(=O)NC23CC4CC(CC(C4)C2)C3)c1Sc1ccccc1` [Compound A-2], the pIC50 in series [1] was 4.96; in series [2], 6.57.

As to `Cn1cc(C(=O)NC2C3CC4CC(C3)CC2C4)c(OCc2ccccc2)n1` (centres unmarked) [Compound A-5], the pIC50 was under 4.52 in series [1] and 6.15 in series [2]. `Cn1ncc(C(=O)NC2C3CC4CC(C3)CC2C4)c1OCC1CCC1` (centres unmarked) [Compound A-63] returned a melting point of 84 to 85 °C.
